In US10364247B2, “Preparation and use of novel protein kinase inhibitors” (Ruijin Hospital Affiliated to Shanghai Jiao Tong University …, priority 2015, dated 2019):

Key:
Experiment in all cases: KINOMEscan competition binding
[1] = molecular target: T1, ALK (Homo sapiens, UniProt Q9UM73); details: read-out: Percent Control
T1 construct: purchased KINOMEscan (screening service)
Outline: (§1)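 Competitive displacement format with an active-site ligand on solid support; test concentration 10 μM; data as % Ctrl, lower meaning stronger hit.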

[2] = molecular target: T2, TRKB (Homo sapiens, UniProt Q16620); details: TRKB (Entrez NTRK2), read-out: Percent Control
T2 construct: purchased KINOMEscan (screening service)
Outline: as §1

[3] = molecular target: T3, PIP5K2C (Homo sapiens, UniProt Q8TBX8); details: PIP5K2C (Entrez PIP4K2C), read-out: Percent Control
T3 construct: purchased KINOMEscan (screening service)
Outline: as §1

[4] = molecular target: T4, JAK1(JH1domain-catalytic) (Homo sapiens, UniProt P23458); details: read-out: Percent Control
T4 construct: JAK1(JH1domain-catalytic)
Outline: as §1

[5] = molecular target: T5, GAK (Homo sapiens, UniProt O14976); details: read-out: Percent Control
T5 construct: purchased KINOMEscan (screening service)
Outline: as §1

[6] = molecular target: ABL1(F317L)-phosphorylated (Homo sapiens, UniProt P00519, F317L); details: read-out: Percent Control
Outline: as §1

[7] = molecular target: KIT(D816H) (Homo sapiens, UniProt P10721, D816H); details: read-out: Percent Control
Outline: as §1

[8] = molecular target: T6, PRKCQ (Homo sapiens, UniProt Q04759); details: read-out: Percent Control
T6 construct: purchased KINOMEscan (screening platform)
Outline: as §1

[9] = molecular target: FES (Homo sapiens, UniProt P07332); details: read-out: Percent Control
Outline: as §1

[10] = molecular target: T7, CDC2L2 (Homo sapiens, UniProt Q9UQ88); details: read-out: Percent Control
T7 construct: purchased KINOMEscan (screening platform)
Outline: as §1

[11] = molecular target: PDGFRB (Homo sapiens, UniProt P09619); details: read-out: Percent Control
Outline: as §1

[12] = molecular target: T8, EPHB1 (Homo sapiens, UniProt P54762); details: read-out: Percent Control
T8 construct: purchased KINOMEscan (panel service)
Outline: as §1

[13] = molecular target: CTK (Homo sapiens, UniProt P42679); details: CTK (Entrez MATK), read-out: Percent Control
Outline: as §1

[14] = molecular target: ABL1(T315I)-nonphosphorylated (Homo sapiens, UniProt P00519, T315I); details: read-out: Percent Control
Outline: as §1

[15] = molecular target: IKK-alpha (Homo sapiens, UniProt O15111); details: IKK-alpha (Entrez CHUK), read-out: Percent Control
Outline: as §1

[16] = molecular target: ABL1(Q252H)-phosphorylated (Homo sapiens, UniProt P00519, Q252H); details: read-out: Percent Control
Outline: as §1

[17] = molecular target: HPK1 (Homo sapiens, UniProt Q92918); details: HPK1 (Entrez MAP4K1), read-out: Percent Control
Outline: as §1

[18] = molecular target: BMX (Homo sapiens, UniProt P51813); details: read-out: Percent Control
Outline: as §1

[19] = molecular target: EPHA2 (Homo sapiens, UniProt P29317); details: read-out: Percent Control
Outline: as §1

[20] = molecular target: EGFR(G719S) (Homo sapiens, UniProt P00533, G719S); details: read-out: Percent Control
Outline: as §1

[21] = molecular target: T9, DDR2 (Homo sapiens, UniProt Q16832); details: read-out: Percent Control
T9 construct: purchased KINOMEscan (screening service)
Outline: as §1

[22] = test system: EGFR(L747-T751del, Sins); details: 10 μM
Outline: as §1

[23] = molecular target: MUSK (Homo sapiens, UniProt O15146); details: read-out: Percent Control
Outline: as §1

[24] = molecular target: T10, RIPK1 (Homo sapiens, UniProt Q13546); details: read-out: Percent Control
T10 construct: purchased KINOMEscan (screening platform)
Outline: as §1

[25] = molecular target: T11, LTK (Homo sapiens, UniProt P29376); details: read-out: Percent Control
T11 construct: purchased KINOMEscan (screening platform)
Outline: as §1

[26] = molecular target: T12, LCK (Homo sapiens, UniProt P06239); details: read-out: Percent Control
T12 construct: purchased KINOMEscan (panel service)
Outline: as §1

[27] = molecular target: EGFR(S752-I759del) (Homo sapiens, UniProt P00533, DEL752-759); details: read-out: Percent Control
Outline: as §1

[28] = molecular target: EGFR(G719C) (Homo sapiens, UniProt P00533, G719C); details: read-out: Percent Control
Outline: as §1

[29] = molecular target: EPHA7 (Homo sapiens, UniProt Q15375); details: read-out: Percent Control
Outline: as §1

[30] = molecular target: T13, JAK3(JH1domain-catalytic) (Homo sapiens, UniProt P52333); details: read-out: Percent Control
T13 construct: JAK3(JH1domain-catalytic)
Outline: as §1

[31] = molecular target: T14, PIP5K1C (Homo sapiens, UniProt O60331); details: read-out: Percent Control
T14 construct: purchased KINOMEscan (screening service)
Outline: as §1

[32] = molecular target: T15, TNK1 (Homo sapiens, UniProt Q13470); details: read-out: Percent Control
T15 construct: purchased KINOMEscan (screening service)
Outline: as §1

[33] = molecular target: SYK (Homo sapiens, UniProt P43405); details: read-out: Percent Control
Outline: as §1

[34] = molecular target: ABL1(F317I)-phosphorylated (Homo sapiens, UniProt P00519, F317I); details: read-out: Percent Control
Outline: as §1

[35] = molecular target: T16, DRAK1 (Homo sapiens, UniProt Q9UEE5); details: DRAK1 (Entrez STK17A), read-out: Percent Control
T16 construct: purchased KINOMEscan (screening platform)
Outline: as §1

[36] = molecular target: T17, TNNI3K (Homo sapiens, UniProt Q59H18); details: read-out: Percent Control
T17 construct: purchased KINOMEscan (panel service)
Outline: as §1

T7 sequence (Q9UQ88 whole entry): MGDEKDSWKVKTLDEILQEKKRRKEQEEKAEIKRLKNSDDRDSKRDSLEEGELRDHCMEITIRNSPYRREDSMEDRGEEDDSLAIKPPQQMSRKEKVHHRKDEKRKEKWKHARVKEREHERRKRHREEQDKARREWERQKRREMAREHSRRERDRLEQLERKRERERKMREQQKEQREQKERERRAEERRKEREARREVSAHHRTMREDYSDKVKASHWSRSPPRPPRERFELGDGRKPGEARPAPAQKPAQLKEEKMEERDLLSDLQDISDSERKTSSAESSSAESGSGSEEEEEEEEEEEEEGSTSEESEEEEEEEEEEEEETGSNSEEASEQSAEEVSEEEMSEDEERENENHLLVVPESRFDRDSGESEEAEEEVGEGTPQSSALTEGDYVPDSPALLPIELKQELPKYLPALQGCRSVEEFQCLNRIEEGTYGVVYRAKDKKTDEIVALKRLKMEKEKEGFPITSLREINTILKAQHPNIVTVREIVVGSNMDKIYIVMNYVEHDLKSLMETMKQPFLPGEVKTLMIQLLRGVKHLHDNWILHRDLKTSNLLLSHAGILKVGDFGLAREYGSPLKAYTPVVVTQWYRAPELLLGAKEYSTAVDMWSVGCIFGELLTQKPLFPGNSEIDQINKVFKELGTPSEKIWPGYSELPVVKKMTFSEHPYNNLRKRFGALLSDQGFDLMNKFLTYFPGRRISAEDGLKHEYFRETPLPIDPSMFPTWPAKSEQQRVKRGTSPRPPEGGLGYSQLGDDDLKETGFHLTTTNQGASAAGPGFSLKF
Sequence of PDGFRB (P09619 33-1106): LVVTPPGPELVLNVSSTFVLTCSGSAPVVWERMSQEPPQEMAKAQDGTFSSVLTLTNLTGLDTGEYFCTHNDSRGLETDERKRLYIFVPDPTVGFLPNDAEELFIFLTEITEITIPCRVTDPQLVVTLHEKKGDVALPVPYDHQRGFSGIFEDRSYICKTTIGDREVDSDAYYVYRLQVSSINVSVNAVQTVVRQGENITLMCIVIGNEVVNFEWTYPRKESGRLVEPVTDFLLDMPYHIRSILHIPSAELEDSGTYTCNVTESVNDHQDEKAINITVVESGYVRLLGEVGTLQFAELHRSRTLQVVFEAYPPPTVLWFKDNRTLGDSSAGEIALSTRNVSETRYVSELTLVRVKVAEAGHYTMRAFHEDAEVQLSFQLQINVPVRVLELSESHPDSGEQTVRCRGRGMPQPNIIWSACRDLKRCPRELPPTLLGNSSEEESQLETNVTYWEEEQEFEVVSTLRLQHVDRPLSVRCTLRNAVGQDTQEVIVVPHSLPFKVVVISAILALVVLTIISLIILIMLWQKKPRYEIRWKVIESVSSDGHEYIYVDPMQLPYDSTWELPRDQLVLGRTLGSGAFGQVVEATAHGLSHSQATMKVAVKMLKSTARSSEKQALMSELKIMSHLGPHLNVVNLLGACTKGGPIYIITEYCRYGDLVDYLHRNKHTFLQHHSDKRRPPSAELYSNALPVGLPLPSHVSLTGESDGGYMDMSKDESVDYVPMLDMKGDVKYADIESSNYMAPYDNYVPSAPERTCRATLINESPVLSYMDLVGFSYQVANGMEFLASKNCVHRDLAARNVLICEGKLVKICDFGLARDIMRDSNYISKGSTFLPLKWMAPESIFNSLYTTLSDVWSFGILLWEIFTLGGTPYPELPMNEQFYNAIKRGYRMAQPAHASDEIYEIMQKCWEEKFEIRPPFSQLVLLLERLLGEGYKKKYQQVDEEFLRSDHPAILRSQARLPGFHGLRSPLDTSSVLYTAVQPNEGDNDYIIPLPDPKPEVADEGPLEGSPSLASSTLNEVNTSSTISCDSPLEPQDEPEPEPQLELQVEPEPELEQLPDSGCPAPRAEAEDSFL
Sequence of EGFR(G719S) (P00533 25-1210 G719S): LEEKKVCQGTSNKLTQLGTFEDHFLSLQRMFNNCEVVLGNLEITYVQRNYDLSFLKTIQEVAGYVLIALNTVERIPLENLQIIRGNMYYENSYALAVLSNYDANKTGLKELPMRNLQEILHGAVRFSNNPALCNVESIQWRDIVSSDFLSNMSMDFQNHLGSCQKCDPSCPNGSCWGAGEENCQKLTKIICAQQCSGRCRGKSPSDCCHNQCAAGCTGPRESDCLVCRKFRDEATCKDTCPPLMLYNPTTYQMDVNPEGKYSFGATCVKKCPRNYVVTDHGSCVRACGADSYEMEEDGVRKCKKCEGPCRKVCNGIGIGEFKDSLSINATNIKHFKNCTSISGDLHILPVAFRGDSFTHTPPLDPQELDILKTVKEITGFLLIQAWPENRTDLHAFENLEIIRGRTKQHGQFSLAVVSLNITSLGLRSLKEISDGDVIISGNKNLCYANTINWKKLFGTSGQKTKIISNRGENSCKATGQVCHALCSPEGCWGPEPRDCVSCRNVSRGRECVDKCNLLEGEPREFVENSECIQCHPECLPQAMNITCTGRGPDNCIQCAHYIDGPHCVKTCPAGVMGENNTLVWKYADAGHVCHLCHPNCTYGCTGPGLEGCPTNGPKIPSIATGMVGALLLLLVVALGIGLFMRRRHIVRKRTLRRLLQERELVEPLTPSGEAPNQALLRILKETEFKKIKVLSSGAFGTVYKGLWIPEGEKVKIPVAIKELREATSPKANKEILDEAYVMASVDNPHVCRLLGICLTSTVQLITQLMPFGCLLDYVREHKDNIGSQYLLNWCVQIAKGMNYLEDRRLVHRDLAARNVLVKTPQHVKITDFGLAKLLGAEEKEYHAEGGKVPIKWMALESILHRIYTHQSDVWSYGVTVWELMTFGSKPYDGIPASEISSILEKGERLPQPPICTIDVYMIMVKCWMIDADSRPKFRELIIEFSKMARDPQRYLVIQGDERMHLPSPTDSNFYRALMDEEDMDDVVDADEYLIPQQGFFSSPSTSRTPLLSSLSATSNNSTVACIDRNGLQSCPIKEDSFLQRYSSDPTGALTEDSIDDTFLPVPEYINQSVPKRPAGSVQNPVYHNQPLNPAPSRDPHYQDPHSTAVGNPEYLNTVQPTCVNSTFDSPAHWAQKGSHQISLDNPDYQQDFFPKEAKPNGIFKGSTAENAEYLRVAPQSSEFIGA
T9 sequence (Q16832 22-855): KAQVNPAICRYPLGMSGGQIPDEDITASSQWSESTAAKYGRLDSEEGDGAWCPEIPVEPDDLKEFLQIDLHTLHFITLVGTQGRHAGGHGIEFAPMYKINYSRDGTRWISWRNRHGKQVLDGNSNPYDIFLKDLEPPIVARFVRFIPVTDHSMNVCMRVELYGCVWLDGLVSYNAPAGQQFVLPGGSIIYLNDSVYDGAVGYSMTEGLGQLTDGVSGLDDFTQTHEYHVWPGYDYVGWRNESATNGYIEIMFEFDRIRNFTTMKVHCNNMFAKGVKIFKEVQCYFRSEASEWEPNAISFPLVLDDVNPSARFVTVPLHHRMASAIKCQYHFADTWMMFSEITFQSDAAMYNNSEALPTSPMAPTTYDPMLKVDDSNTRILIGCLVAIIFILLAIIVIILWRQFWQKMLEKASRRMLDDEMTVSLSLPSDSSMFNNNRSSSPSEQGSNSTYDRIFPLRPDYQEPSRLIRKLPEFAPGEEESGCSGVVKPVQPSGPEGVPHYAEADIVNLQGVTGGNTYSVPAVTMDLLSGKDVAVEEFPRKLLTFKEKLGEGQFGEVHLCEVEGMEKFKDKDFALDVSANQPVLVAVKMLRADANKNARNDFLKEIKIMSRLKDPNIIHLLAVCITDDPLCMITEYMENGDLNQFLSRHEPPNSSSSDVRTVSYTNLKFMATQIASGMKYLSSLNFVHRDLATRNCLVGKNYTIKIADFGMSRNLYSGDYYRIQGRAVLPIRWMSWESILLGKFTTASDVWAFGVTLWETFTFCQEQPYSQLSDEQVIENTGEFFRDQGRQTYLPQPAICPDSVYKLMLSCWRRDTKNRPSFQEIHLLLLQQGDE
Sequence of HPK1 (Q92918 whole entry): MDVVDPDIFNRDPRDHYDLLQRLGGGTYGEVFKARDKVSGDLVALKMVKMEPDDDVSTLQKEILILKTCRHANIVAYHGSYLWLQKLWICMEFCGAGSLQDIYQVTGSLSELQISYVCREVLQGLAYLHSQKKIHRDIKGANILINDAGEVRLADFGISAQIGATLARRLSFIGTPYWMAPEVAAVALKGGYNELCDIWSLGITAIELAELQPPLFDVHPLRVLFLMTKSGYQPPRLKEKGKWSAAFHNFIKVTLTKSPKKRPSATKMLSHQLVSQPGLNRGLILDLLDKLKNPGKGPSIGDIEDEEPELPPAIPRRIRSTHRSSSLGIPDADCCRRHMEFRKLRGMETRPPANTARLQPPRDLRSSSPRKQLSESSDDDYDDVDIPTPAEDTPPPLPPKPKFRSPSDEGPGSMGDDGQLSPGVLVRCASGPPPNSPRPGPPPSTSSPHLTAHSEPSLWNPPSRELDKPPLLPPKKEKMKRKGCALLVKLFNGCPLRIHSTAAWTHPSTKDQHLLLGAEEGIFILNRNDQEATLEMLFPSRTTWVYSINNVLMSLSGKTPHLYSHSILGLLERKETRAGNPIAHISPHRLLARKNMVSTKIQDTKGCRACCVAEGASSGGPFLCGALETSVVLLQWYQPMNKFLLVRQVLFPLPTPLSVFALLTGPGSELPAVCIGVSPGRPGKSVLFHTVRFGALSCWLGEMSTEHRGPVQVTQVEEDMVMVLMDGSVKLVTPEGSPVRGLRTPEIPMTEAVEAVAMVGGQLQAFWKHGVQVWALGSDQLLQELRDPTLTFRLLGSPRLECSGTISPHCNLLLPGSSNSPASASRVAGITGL
T13 sequence (P52333 822-1111 limits assumed): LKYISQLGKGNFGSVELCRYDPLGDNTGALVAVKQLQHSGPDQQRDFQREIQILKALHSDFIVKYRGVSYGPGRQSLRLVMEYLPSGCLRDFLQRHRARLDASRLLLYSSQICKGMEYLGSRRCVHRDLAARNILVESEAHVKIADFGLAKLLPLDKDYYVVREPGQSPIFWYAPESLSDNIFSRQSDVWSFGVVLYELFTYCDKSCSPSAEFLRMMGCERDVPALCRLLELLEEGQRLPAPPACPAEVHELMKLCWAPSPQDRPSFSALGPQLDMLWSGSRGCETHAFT

Cc1ccc(Nc2ncc3c(n2)N(C)CN(c2cc(NC(=O)c4cccc(C(F)(F)F)c4)ccc2C)C3)cn1 [IA-9, N-(4-methyl-3-(1-methyl-7-((6-methylpyridin-3-yl)amino)-1,4-dihydropyrimido[4,5-d]pyrimidin-3(2H)-yl)phenyl)-3-(trifluoromethyl)benzamide]
remaining binding at 10 µM [1]: 22% | remaining binding at 10 µM [2]: 10% | remaining binding at 10 µM [3]: 19% | remaining binding at 10 µM [4]: 2% | remaining binding at 10 µM [5]: 7.4% | remaining binding at 10 µM [6]: 3.2% | remaining binding at 10 µM [7]: 5.4% | remaining binding at 10 µM [8]: 25% | remaining binding at 10 µM [9]: 0.7% | remaining binding at 10 µM [10]: 28% | remaining binding at 10 µM [11]: 0% | remaining binding at 10 µM [12]: 0.15% | remaining binding at 10 µM [13]: 3.4% | remaining binding at 10 µM [14]: 0% | remaining binding at 10 µM [15]: 1% | remaining binding at 10 µM [16]: 0.2% | remaining binding at 10 µM [17]: 3.8% | remaining binding at 10 µM [18]: 0.75% | remaining binding at 10 µM [19]: 0.2% | remaining binding at 10 µM [20]: 0% | remaining binding at 10 µM [21]: 9.1% | Percent Control [22]: 0.4 % Ctrl | remaining binding at 10 µM [23]: 6.8% | remaining binding at 10 µM [24]: 28% | remaining binding at 10 µM [25]: 22% | remaining binding at 10 µM [26]: 0.15% | remaining binding at 10 µM [27]: 0% | remaining binding at 10 µM [28]: 0% | remaining binding at 10 µM [29]: 0.55% | remaining binding at 10 µM [30]: 5% | remaining binding at 10 µM [31]: 21% | remaining binding at 10 µM [32]: 12% | remaining binding at 10 µM [33]: 4.4% | remaining binding at 10 µM [34]: 4.1% | remaining binding at 10 µM [35]: 22% | remaining binding at 10 µM [36]: 0.1%
